Entries after “also recorded” stand apart in the source; their conditions may differ.
Assays:
[1] = system: influenza A(H1N1)pdm09 virus isolates with NA-I223V + S247N; format: biochemical
[2] = system: influenza A(H1N1)pdm09 virus isolates with NA-I223V; format: biochemical
[3] = system: influenza A(H1N1)pdm09 virus isolates with NA-S247N; format: biochemical
[4] = system: influenza A(H1N1)pdm09 virus isolates with NA-I223V + S247N; format: cell-based
[5] = system: influenza A(H1N1)pdm09 virus isolates with NA-S247N; format: cell-based
[6] = system: influenza A(H1N1)pdm09 virus isolates with NA-I223V; format: cell-based
[7] = read-out: NA inhibitors IC50, average ± SD

Structure (SMILES): CCC(CC)[C@H](NC(C)=O)[C@@H]1[C@H](O)[C@@H](C(=O)O)C[C@H]1N=C(N)N [Peramivir, peramivir]
- NA inhibitors IC50 fold change [1]: 0.29 ± 0.01 (4) fold
- IC50 [1, 7]: 0.29 nM
- NA inhibitors IC50 fold change [2]: 0.08 ± 0.01 (1) fold
- IC50 [2, 7]: 0.08 nM
- NA inhibitors IC50 fold change [3]: 0.19 ± 0.01 (3) fold
- IC50 [3, 7]: 0.19 nM

Structure (SMILES): O=C1c2c(O)c(=O)ccn2N([C@@H]2c3ccccc3SCc3c2ccc(F)c3F)[C@@H]2COCCN12 [baloxavir]
- susceptibility to baloxavir [4]: retained susceptibility; also recorded: susceptible
- susceptibility to baloxavir [5]: susceptible
- susceptibility to baloxavir [6]: susceptible

Structure (SMILES): CCOC(=O)C1=C[C@@H](OC(CC)CC)[C@H](NC(C)=O)[C@@H](N)C1 [Oseltamivir, oseltamivir]
- susceptibility to antiviral drugs [1]: reduced susceptibility

Source: PMC11210663 (Emerging Infectious Diseases, 2024)
